Experiments:
[1] = system: C57BL/KsJ-db/db diabetic mouse; assay: Example 4: wound healing in genetically diabetic mouse, subcutaneous route; type: in vivo; settings: for histopathological Grade / histopathological Score: sacrifice day 21, doses as in the 18th table
Method: The genetically diabetic mouse develops resistance to insulin and hyperglycemia similar to those observed in adult diabetes. The total thickness wounds made in the back of these animals takes longer in forming the granulation tissue and in closing than the same wounds caused in non-diabetic animals.
On the first day of the assay, the animals were anesthetized (ketamine+xylazine, 100+10 mg/kg, i.m.). The back of the animal was shaved, the area was cleaned with disinfectant and the location of the wound was marked by means of a template to make its position the same in all the animals.
The wound was made by means of a circular incision with a diameter of approximately 1.5 cm, the skin of the mid-dorsal area being removed. A semipermeable dressing was subsequently placed on the wound. 1 mL/animal of physiological serum was administered by i.p. route after the intervention.
(§1) The wound area was calculated as the percentage of reduction thereof to evaluate the degree of curing thereof, by means of the standardized formula: […]
The measurement performed immediately after the intervention or incision was used as the baseline area. On the following day and for a total of 14 days, the assigned treatments were administered to the animals.
On the following day and for a total of 14 days, 10 mL/kg were administered to the animals by subcutaneous route in the back of the animal, avoiding the area of the wound.
The follow-up of the animals was performed up to a period of 21 days (average time necessary for the healing of the wounds in this animal model). The assessment was performed by means of digital photography of the wound and subsequent image analysis.
The animals were sacrificed on day 21 of the study and the area of the skin where the wound was caused was stored in formol to perform a histopathological evaluation (hematoxylin-eosin staining).
Each section was given a histological score in the grade 1 to grade V range, where I means uncured wound and V means completely epithelialized wound. The score is based on the degree of cell invasion, the formation of granulation tissue, vascularization and epithelialization.

diabetic rat wound model = assay: Wound healing by oral route in diabetic rat; type: in vivo, Wistar rat; settings: 14 days; for histopathological Grade / histopathological Score: oral, sacrifice day 15, fondaparinux 10 mg/kg, bemiparin 100 mg/kg
Method: Both treatments were administered by oral route at an administration volume of 10 mL/kg. In the case of fondaparinux, a dose of 10 mg/kg was administered and in the case of bemiparin, 100 mg/kg were administered.
The control group only received the carrier used to prepare the assay product. The carrier for the preparation of the assay product is a 1.5% (w/v) bicarbonate solution in water for injections. It was verified that the pH of the formulations prepared was above 8.00.
At the beginning of the assay, diabetes mellitus was induced in all the animals. To that end, they received a single intraperitoneal injection of streptozotocin (60 mg/kg, 10 mL/kg). After 72 hours, the establishment of the diabetes was verified by analyzing the blood glucose levels. To that end, animals were anesthetized with isoflurane and 0.8 mL of blood were extracted from the retroorbicular plexus. The animals had to have values of glucose greater than 15 mmol/L. A week after the induction of the diabetes, the wound was made.
The animals were anesthetized (ketamine+xylazine, 90+10 mg/kg, i.m.). Their back was shaved and cleaned with disinfectant (povidone-iodine) and the area where the wound would be made was marked by means of a template to homogenize its position in all the animals.
The wound was made by means of a circular incision with a diameter of approximately 1.5 cm, the skin of the mid-dorsal area being removed. 1 mL/animal of physiological serum was administered by i.p. route after the intervention. […]. Analgesia (paracetamol, 1 mg/mL) was provided in drinking water for the 7 days after the intervention.
On the day after making the wound and for a total of 14 days, the assigned treatments were administered to the animals. The follow-up of the animals was performed, the evolution of the wounds being macroscopically assessed twice a week, by means of digital photography of the wound. The body weight of the animals was also recorded twice a week.
On the day after the last administration, the animals were sacrificed with anesthesia overdose (pentobarbital sodium). The area where the wound was made was extracted. The front half was frozen in liquid nitrogen and stored in a freezer (−80±5° C.) and the rear half was stored in formol for its subsequent histological processing.
as §1
On the following day and for a total of 14 days, 10 mL/kg were administered to the animals by oral route.
The follow-up of the animals was performed, the evolution of the wounds being macroscopically assessed twice a week, by means of digital photography of the wound. The body weight of the animals was also recorded twice a week.
The animals were sacrificed on day 15 of the study and the area of the skin where the wound was caused was stored in formol to perform a histopathological evaluation (hematoxylin-eosin staining).
Each section was given a histological score in the grade I to grade V range, where I means uncured wound and V means completely epithelialized wound. The score is based on the degree of cell invasion, the formation of granulation tissue, […]

[2] = system: C57BL/KsJ-db/db diabetic mouse; assay: Example 4: wound healing in genetically diabetic mouse, topical route; type: in vivo; settings: topical 1000 IU/kg; for histopathological Grade / histopathological Score: 14 days, sacrifice day 15
Method: In this case, topical formulations were prepared for the direct administration on the ulcers, the carriers of which formulations are formed by Carbopol, Phenonip®, Span 80, Glycerol and water.
The ulceration and measurement of the area were performed as detailed in the subcutaneous administration assays. On the day after the incision and for a total of 14 days, the assigned treatments, 0.15 ml/animal by topical route in the back of the animal, above the wound, were administered to the animals.
The follow-up of the animals was performed up to a period of 14 days (average time necessary for the healing of the wounds in this animal model). The assessment was performed by means of digital photography of the wound and subsequent image analysis.
The animals were sacrificed on the day after the last administration (day 15) and the area where the wound was made was extracted. The rear portion of the area containing the wound was stored in formol for its histological processing (hematoxylin-eosin staining).
The results were based on the score given by the method of Greenhalgh et al. (1990). Each block was given a histological score from 1 to 15, where 1 means uncured wound and 15 means completely epithelialized wound. The score is based on the degree of cell invasion, the formation of granulation tissue, vascularization and epithelialization: […]

[3] = day 21, subcutaneous 14 days, fondaparinux 1 mg/kg, bemiparin 1000 IU Xa/kg

Compound | percentage of healing of the wound [1, 3] | histopathological Grade ([1]; subcutaneous 14 days) | histopathological Score ([1]; subcutaneous 14 days) | histopathological Grade (diabetic rat wound model) | histopathological Score (diabetic rat wound model) | histopathological Grade [2] | histopathological Score [2] | percentage of healing of the wound ([1]; from day 18, subcutaneous 1000 IU Xa/kg) [%] | day on which the wound closes ([1]; subcutaneous 1000 IU Xa/kg) [days] | granulation tissue in the wound, macroscopic ([1]; subcutaneous, after the fifth day of treatment) | evolution of the wound area (FIG. 11) (diabetic rat wound model; oral 100 mg/kg) | area reduction ([2]; end of the treatment (14 days))
CO[C@H]1O[C@H](COS(=O)(=O)O)[C@@H](O[C@@H]2O[C@@H](C(=O)O)[C@@H](O[C@H]3O[C@H](COS(=O)(=O)O)[C@@H](O[C@@H]4O[C@H](C(=O)O)[C@@H](O[C@H]5O[C@H](COS(=O)(=O)O)[C@@H](O)[C@H](O)[C@H]5NS(=O)(=O)O)[C@H](O)[C@H]4O)[C@H](OS(=O)(=O)O)[C@H]3NS(=O)(=O)O)[C@H](O)[C@H]2OS(=O)(=O)O)[C@H](O)[C@H]1NS(=O)(=O)O [Fondaparinux] | 96% | III (7-9 Moderately thick granulation tissue. It can vary from being dominated by inflammatory cells to greater presence of fibroblasts and collagen deposition, extensive neovascularization, minimum to moderate epithelial migration.) | 7.2 | III (7-9 Moderately thick granulation tissue. It can vary from being dominated by inflammatory cells to greater presence of fibroblasts and collagen deposition, extensive neovascularization, minimum to moderate epithelial migration.) | 9.5 | III (7-9 Moderately thick granulation tissue. It can vary from being dominated by inflammatory cells to greater presence of fibroblasts and collagen deposition, extensive neovascularization, minimum to moderate epithelial migration.) | 8.6 |  |  |  |  | 
Bemiparin | complete curing | IV (10-12 Thick and vascular granulation tissue dominated by fibroblasts and extensive collagen deposition, the epithelium covers the wound partially or completely.) | 11.5 | IV (10-12 Thick and vascular granulation tissue dominated by fibroblasts and extensive collagen deposition, the epithelium covers the wound partially or completely.) | 11.3 | III (7-9 Moderately thick granulation tissue. It can vary from being dominated by inflammatory cells to greater presence of fibroblasts and collagen deposition, extensive neovascularization, minimum to moderate epithelial migration.) | 8.7 | 98 | 18 | a bed covered with granulation tissue | heal much better than those treated with fondaparinux | greater than 60%
